The source of these data is ChEMBL document CHEMBL1149646, “2D Quantitative structure-activity relationship studies on a series of cholesteryl ester transfer protein inhibitors” (Bioorg Med Chem, 2007).

This assay addresses T1, Cholesteryl ester transfer protein (Homo sapiens, UniProt P11597).
T1 sequence (P11597 whole entry): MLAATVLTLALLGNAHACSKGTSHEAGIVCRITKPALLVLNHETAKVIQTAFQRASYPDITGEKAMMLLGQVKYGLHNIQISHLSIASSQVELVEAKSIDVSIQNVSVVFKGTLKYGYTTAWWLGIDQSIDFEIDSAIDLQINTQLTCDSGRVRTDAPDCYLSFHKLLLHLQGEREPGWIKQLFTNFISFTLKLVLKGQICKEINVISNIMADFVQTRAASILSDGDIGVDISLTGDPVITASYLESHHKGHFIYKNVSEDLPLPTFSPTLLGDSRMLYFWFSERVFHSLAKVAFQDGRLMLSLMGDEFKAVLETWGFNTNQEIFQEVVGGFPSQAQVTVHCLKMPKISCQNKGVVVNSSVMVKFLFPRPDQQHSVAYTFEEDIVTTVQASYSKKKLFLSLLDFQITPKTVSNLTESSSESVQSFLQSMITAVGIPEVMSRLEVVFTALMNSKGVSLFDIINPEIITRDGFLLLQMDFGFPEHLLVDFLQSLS
Kind of assay: Inhibition of CETP.
`OC(CN(Cc1cccc(OC(F)(F)F)c1)c1cccc(Oc2ccccc2)c1)c1ccccc1` (centres undefined) returned an IC50 of 50000 nM.

Turning to `OC(CN(Cc1cccc2c1OC(F)(F)C(F)(F)O2)c1cccc(Oc2ccccc2)c1)C(F)(F)F` (centres undefined), half-maximal inhibition (IC50) required 12000 nM.

`Cc1cccc(-c2cccc(CN(CC(O)C(F)(F)F)c3cccc(Oc4ccccc4)c3)c2)n1` (centres undefined) gave an IC50 of 15000 nM.

Molecule `OC(CN(Cc1cccc(OC(F)(F)C(F)F)c1)c1cccc(-c2ccncc2)c1)C(F)(F)F` (centres undefined) displayed an IC50 of 6240 nM.

The molecule `OC(CN(Cc1cccc(OC(F)(F)C(F)F)c1)c1cccc(Oc2ccc(F)c(F)c2)c1)C(F)(F)F` (centres undefined) displayed an IC50 of 80 nM.

In the case of `OC(CN(Cc1cccc(OC(F)(F)C(F)F)c1)c1cccc(OCc2ccccc2CC(F)(F)F)c1)C(F)(F)F` (centres undefined), the midpoint of inhibition, the IC50, lay at 90 nM.

Regarding `Cc1cc(C)cc(Oc2cccc(CN(CC(O)C(F)(F)F)c3cccc(Oc4ccccc4)c3)c2)c1` (centres undefined), the IC50 amounted to 70 nM.

Turning to `CC(C)(C)c1cccc(Oc2cccc(N(Cc3cccc(OC(F)(F)C(F)F)c3)CC(O)C(F)(F)F)c2)c1` (centres undefined), the midpoint of inhibition, the IC50, lay at 100 nM.

`OC(CN(Cc1cccc(OC(F)(F)C(F)F)c1)c1cccc(Oc2cccc(CC(F)(F)F)c2)c1)C(F)(F)F` (centres undefined) displayed an IC50 of 30 nM.

Take `CC(C)(O)c1cccc(N(Cc2cccc(OC(F)(F)C(F)F)c2)CC(O)C(F)(F)F)c1` (centres undefined): the midpoint of inhibition, the IC50, lay at 7800 nM.

Molecule `CCCCc1ccc(Oc2cccc(N(Cc3cccc(OC(F)(F)C(F)F)c3)CC(O)C(F)(F)F)c2)cc1` (centres undefined) registered a concentration for half-maximal inhibition (IC50) of 200 nM.

In turn, `OC(CN(Cc1cccc(-c2cccc(C(F)(F)F)n2)c1)c1cccc(Oc2ccccc2)c1)C(F)(F)F` (centres undefined) came in with an IC50 of 4080 nM.

On to `CCCCC(O)CN(Cc1cccc(OC(F)(F)F)c1)c1cccc(Oc2ccccc2)c1` (centres undefined), for which the IC50 was determined as 3600 nM.

`OC(CN(Cc1cccc(OC(F)(F)C(F)F)c1)c1cccc(OCc2ccccc2OC(F)(F)F)c1)C(F)(F)F` (centres undefined) displayed an IC50 of 60 nM.

As a reminder, the IC50 is the concentration at which inhibition is half-maximal. Low values mean higher potency, high ones lower potency.
